These results are taken from PubChem BioAssay (NCI).

“And” between values parts separate entries of the source, which are not always exact repeats. Equal values may be shown once.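 Assay format: 96-well plates, 48-hour exposure. GI50 is the concentration that inhibits growth by half. TGI: concentration producing complete growth inhibition.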 Some results are limits rather than exact numbers.

Assay in all cases: NCI anticancer screen, dose series, 48 h
Test [1] relates to HL-60(TB) leukemia.
The test system of test [2] is SF-268 CNS.
Test [3] deals with DU-145 prostate.
In test [4] the test system is NCI-H23 lung.
The subject of test [5] is SK-MEL-2 melanoma.
Test [6] has as its system OVCAR-4 ovarian.
The test system of test [7] is SF-539 CNS.
Test [8] concerns IGROV1 ovarian.
Test [9] deals with PC-3 prostate.
Test [10] concerns MDA-MB-435.

Consider `Cc1cccc2c(N=Nc3ccccc3[N+](=O)[O-])c(O)[nH]c12`, for which the TGI in [1] is > 100 µM; in [2] it was 33.3 µM; in [3], > 100 µM; in test [4] it was 23.4 µM; in [5] it was > 71.1 µM; in [6], 16.9 µM. Further, the TGI in [7] was 8.96 µM; in [8], > 50.5 µM; in [9], 38.4 µM; in test [10], > 100 µM.

For `Cc1ccc(S(=O)(=O)NNC(C[N+](=O)[O-])c2ccccc2)cc1` (stereo not drawn), the TGI is 21.9 µM in test [1]; 35.7 µM in test [2]; > 100 µM in [3]; > 100 µM in test [4]; 75 µM in test [5]; 32.1 µM in test [6]. Moreover, the TGI was 81.5 µM in [7], 26.7 µM in test [8], > 100 µM in test [9] and 11.2 µM in [10].

On to `N#CSCC1CC(O)(c2ccccc2)CC(c2ccc(Cl)cc2)O1` (stereo not drawn), for which the GI50 was 2.52 µM in test [1]; 1.8 µM in [2]; 2.18 µM in test [3]; 2.41 µM in test [4]; 1.89 µM in test [5]; 4.44 µM in [6]. The GI50 in [7] is 1.54 µM; in test [8], 2.75 µM; in test [9], 2.47 µM; in [10], 1.9 µM. Further, the TGI in test [1] came to 5.3 µM; in test [2] it was 3.29 µM; in [3] it was 4.72 µM; in [4] it was 6.53 µM; in test [5] it was 3.78 µM; in test [6], 15.3 µM. Further, the TGI in test [7] amounted to 3.32 µM; in [8] it was 7.72 µM; in test [9] it was 7.49 µM; in test [10], 4.8 µM.

For `COc1ccc2c(c1)C(=O)c1c-2n(CCCN=[N+]=[N-])c(=O)c2cc(N)ccc12`, the GI50 in test [1] was > 100 µM; in test [2] it was > 100 µM; in [3], > 100 µM; in test [4] it was > 100 µM; in test [5], > 100 µM; in [6] it was 17.8 µM. In addition, the GI50 in test [7], in test [8], in [9] and in test [10] was > 100 µM throughout. For the same molecule, the TGI in test [1], in test [2], in [3], in test [4], in test [5] and in [6] was > 100 µM throughout. Besides, the TGI in test [7], in test [8], in [9] and in [10] was > 100 µM throughout.

Consider `CC1=C/C(O)CC(=O)Cc2nc(co2)C(=O)N2CCC=C2C(=O)OC(C(C)C)C(C)/C=C\C(=O)NC/C=C\1` (stereo not drawn), for which the GI50 was 14.5 µM in [1]; 20.9 µM in test [2]; 18.5 µM in test [3]; 14.2 µM in test [4]; 10.1 µM in test [5]; 16.1 µM in test [6]. Moreover, the GI50 is 10.9 µM in [7], 18.6 µM in test [8], 65.4 µM in test [9] and 20.3 µM in [10]. For the same molecule, the TGI in test [1] is > 100 µM; in [2], 54.4 µM and 43.4 µM; in [3], 45.2 µM and > 100 µM; in [4], 44.4 µM and 37.7 µM; in [5], > 100 µM; in test [6] it was > 100 µM. Besides, the TGI in test [7] is 46.3 µM and > 100 µM; in test [8], 48.2 µM and 36.6 µM; in test [9], > 100 µM; in test [10], > 94.2 µM and 80.4 µM.

For the molecule `CN(C)CCCN1c2ccc(O)cc2Sc2ccc(Cl)cc21`, the TGI in test [1] came out at 30.8 µM; in [2], 21 µM; in test [3] it was 31.8 µM; in test [4], 34 µM; in [5], 19 µM; in [6], 25.5 µM. The TGI was determined as 28.7 µM in [7], 22 µM in [8], 18 µM in [9] and 21.1 µM in [10].

On to `Cc1ccc(NC(=O)N2CCCCC2)cc1[N+](=O)[O-]`, for which the GI50 in test [1], in test [2], in [3], in test [4], in test [5] and in test [6] was > 100 µM throughout. Besides, the GI50 in test [7], in test [8], in test [9] and in [10] was > 100 µM throughout. The TGI in test [1], in test [2], in test [3], in test [4], in test [5] and in test [6] was > 100 µM throughout. For the same molecule, the TGI in test [7], in [8], in [9] and in [10] was > 100 µM each time.

As for `O=C(O)c1nnsc1-c1csnn1`, the TGI in test [1], in [2], in test [3], in test [4], in test [5] and in [6] was > 100 µM throughout. Further, the TGI in [7], in [8], in [9] and in test [10] was > 100 µM in each case.

Consider `O=C(NCCNC(=O)c1ccc(F)cc1)Nc1ccc(-n2cc(-c3ccncc3)c(-c3ccc(Cl)c(O)c3)n2)cc1`, for which the GI50 in test [1] was 0.273 µM; in test [2] it was 0.427 µM; in test [3] it was 0.411 µM; in test [4], 0.587 µM; in test [5], 0.738 µM; in [6], 0.585 µM. Moreover, the GI50 in [7] is 0.253 µM; in test [8], 0.659 µM; in test [9] it was 0.39 µM; in [10], 0.189 µM. Further, the TGI in test [1] is 0.848 µM; in test [2], 7.33 µM; in test [3], > 100 µM; in [4] it was 7.77 µM; in test [5], 4 µM; in [6], > 100 µM. The TGI in [7] is 0.957 µM; in test [8], > 100 µM; in [9], 8.21 µM; in test [10] it was 0.577 µM.

Consider `O=C(c1ccccc1)c1ccc(O)c2ncccc12`, for which the GI50 in [1] is 2.09 µM; in test [2] it was 3.11 µM; in test [3], 5.72 µM; in [4], 4.85 µM; in test [5] it was 12 µM; in test [6] it was 2.96 µM. The GI50 was 4.66 µM in [7], 2.4 µM in test [8], 4.36 µM in [9] and 6.13 µM in test [10]. Further, the TGI in test [1] is 8.82 µM; in test [2], > 100 µM; in test [3], 27.6 µM; in [4], 19.6 µM; in test [5], 43.3 µM; in test [6] it was 11 µM. In addition, the TGI in test [7] is 21.3 µM; in test [8] it was 11.9 µM; in test [9], 97.6 µM; in test [10], 97.5 µM.

Turning to `Clc1ccc(N/N=C(\c2ccccc2)c2ccccn2)nc1`, the GI50 in test [1] was 0.0868 µM; in [2] it was 0.324 µM; in [3], 0.243 µM; in test [4], 0.279 µM; in [5], 0.796 µM; in test [6] it was 0.0201 µM. The GI50 was 0.297 µM in test [7], 0.139 µM in [8], 0.112 µM in test [9] and 0.42 µM in test [10]. Moreover, the TGI in test [2] was 21.1 µM and 4.08 µM; in test [3], > 100 µM; in test [4], > 77.9 µM and 12.9 µM; in test [5], > 95.1 µM and 32.3 µM; in test [6] it was > 100 µM and 56.2 µM; in test [7] it was 5.57 µM and 9.47 µM. The TGI in [9] is > 67.8 µM and 28.9 µM; in test [10] it was > 55.9 µM.

Regarding `COc1ccccc1Nc1nc2ccccc2c2occc12`, the GI50 in test [1] is 20.5 µM; in test [2], 12.3 µM; in [3], 16.9 µM; in [4], 16.3 µM; in [5], 12 µM; in test [6], 4.13 µM. Also, the GI50 is 9.76 µM in test [7], 14 µM in test [8], 18.8 µM in test [9] and 19.1 µM in test [10]. The TGI in [1] is > 50 µM; in test [2] it was > 50 µM; in test [3] it was > 50 µM; in test [4] it was 35.9 µM; in test [5], 28.2 µM; in test [6] it was 19.3 µM. For the same molecule, the TGI in test [7] was 21.5 µM; in [8], 39.5 µM; in [9] it was > 50 µM; in test [10] it was > 50 µM.

`CNC(C)[C@H]1CCC2C3CCC4C[C@@H](N(C)C(=O)c5ccccc5)CC[C@]4(C)C3CC[C@@]21C` (stereo partly drawn): the GI50 was 1.58 µM in test [1]; 1.16 µM in test [2]; 3.46 µM in [3]; 0.737 µM in test [4]; 2.6 µM in test [5]; 1.44 µM in [6]. Besides, the GI50 in test [7] is 0.739 µM; in test [8], 1.96 µM; in test [9], 0.969 µM; in [10], 0.632 µM. Also, the TGI in test [1] stood at 4.28 µM; in [2] it was 3.21 µM; in test [3], 16.6 µM; in test [4], 4.96 µM; in test [5], 5.4 µM; in test [6], 16.4 µM. Moreover, the TGI in [7] amounted to 2.01 µM; in test [8] it was 7.73 µM; in test [9], 3.52 µM; in [10] it was 2.42 µM.
